Source: patent US20080306038A1, “Compositions and Methods for Modulating Inflammation Using Fluoroquinolones” (priority 2007, published 2008)

Experiments:
Assay type in all cases: cell-based, human
MCP-1 = test: LPS-stimulated MCP-1 production in THP-1 monocytes (multiplex Luminex); design: key to Inhibition of LPS-stimulated MCP-1 production: “X” signifies significant inhibition at a particular concentration
Experimental: (§1) Human THP-1 monocytes (ATCC TIB 202) were purchased from American Type Culture Collection (Manassas, Va.) and maintained in RPMI 1640 medium (Invitrogen, Carlsbad, Calif.) supplemented with 10% fetal bovine serum (“FBS”, Invitrogen, Carlsbad, Calif.), 100 U/mL of penicillin (Invitrogen, Carlsbad, Calif.), and 100 μg/mL of streptomycin (Invitrogen, Carlsbad, Calif.) at 37° C. in a humidified incubator with 5% CO2. THP-1 cells were pre-cultured in RPMI 1640 medium containing 10% dialyzed serum for 24 h. […] Each treatment was performed in triplicate.
(§2) Samples were analyzed using multiplex bead technology, which utilizes microspheres as the solid support for immunoassays and allows the analysis of all cytokines from each sample (D. A. Vignali, J. Immunol. Methods, Vol. 243, 243-255 (2000)). Sixteen cytokines were measured according to the manufacturer's instructions. Briefly, 50 μL of medium samples were incubated with antibody-coated capture beads overnight at 4° C. Washed beads were further incubated with biotin-labelled anti-human cytokine antibodies for 2 h at room temperature followed by incubation with streptavidin-phycoerythrin for 30 min. Samples were analyzed using Luminex 200™ (Luminex, Austin, Tex.) and Beadview software v1.0 (Upstate Cell Signaling Solutions, Temecula, Calif.). Standard curves of known concentrations of recombinant human cytokines were used to convert fluorescence units (median fluorescence intensity) to cytokine concentration in pg/mL. Only the linear portions of the standard curves were used to quantify cytokine concentrations, and in instances where the fluorescence reading exceeded the linear range of the standard curve, an appropriate dilution was performed to ensure that the concentration was in the linear portion of the curve.
(§3) All cytokine concentrations (pg/mL) were expressed as mean ±standard deviation. Statistical analysis comparing effects of treatment across groups was performed using a one-way ANOVA with a Dunnett's post-hoc comparison test using either vehicle control or LPS treatment as references. […]

RANTES = test: LPS-stimulated RANTES production in THP-1 monocytes (multiplex Luminex); conditions: 0.1-30 μg/mL, 18 hours
Experimental: as §1
(§4) Samples were analyzed using multiplex bead technology, which utilizes microspheres as the solid support for immunoassays and allows the analysis of all cytokines from each sample (D. A. Vignali, J. Immunol. Methods, Vol. 243, 243-255 (2000)). Sixteen cytokines were measured according to the manufacturer's instructions. Briefly, 50 μL of medium samples were incubated with antibody-coated capture beads overnight at 4° C. […] Samples were analyzed using Luminex 200™ (Luminex, Austin, Tex.) and Beadview software v1.0 (Upstate Cell Signaling Solutions, Temecula, Calif.). Standard curves of known concentrations of recombinant human cytokines were used to convert fluorescence units (median fluorescence intensity) to cytokine concentration in pg/mL. […]
(§5) All cytokine concentrations (pg/mL) were expressed as mean ±standard deviation. […]

IL-1α = test: LPS-stimulated IL-1α production in THP-1 monocytes (multiplex Luminex); design: key to Inhibition of LPS-stimulated IL-1α production: “X” signifies significant inhibition at a particular concentration
Experimental: as §1, §2
(§6) All cytokine concentrations (pg/mL) were expressed as mean ±standard deviation. Statistical analysis comparing effects of treatment across groups was performed using a one-way ANOVA with a Dunnett's post-hoc comparison test using either vehicle control or LPS treatment as references. For all assays, p≦0.05 was predetermined as the criterion of statistical significance.

G-CSF = test: LPS-stimulated G-CSF production in THP-1 monocytes (multiplex Luminex); design: key to Inhibition of LPS-stimulated G-CSF production: “X” signifies significant inhibition at a particular concentration
Experimental: as §1, §2, §6

Fractalkine = test: LPS-stimulated fractalkine production in THP-1 monocytes (multiplex Luminex); conditions: 0.1-30 μg/mL, 18 hours
Experimental: as §1, §4, §5

IL-12p40 = test: LPS-stimulated IL-12p40 production in THP-1 monocytes (multiplex Luminex); design: key to Inhibition of LPS-stimulated IL-12p40 production: “X” signifies significant inhibition at a particular concentration; conditions: 18 hours
Experimental: as §1, §2, §6

IL-1ra = test: LPS-stimulated IL-1ra production in THP-1 monocytes (multiplex Luminex); design: key to Inhibition of LPS-stimulated IL-1ra production: “X” signifies significant inhibition at a particular concentration; conditions: for Inhibition of LPS-stimulated IL-1ra production: 18 hours
Experimental: as §1, §2, §6

IP-10 = test: LPS-stimulated IP-10 production in THP-1 monocytes (multiplex Luminex); design: key to Inhibition of LPS-stimulated IP-10 production: “X” signifies significant inhibition at a particular concentration
Experimental: as §1, §2, §6

IL-6 = test: LPS-stimulated IL-6 production in THP-1 monocytes (multiplex Luminex); design: key to Inhibition of LPS-stimulated IL-6 production: “X” signifies significant inhibition at a particular concentration
Experimental: as §1, §2, §6

VEGF = test: LPS-stimulated VEGF production in THP-1 monocytes (multiplex Luminex); design: key to Inhibition of LPS-stimulated VEGF production: “X” signifies significant inhibition at a particular concentration; conditions: for Inhibition of LPS-stimulated VEGF production: 18 hours, THP-1 monocytes
Experimental: as §1, §2, §6

IL-1β = test: LPS-stimulated IL-1β production in THP-1 monocytes (multiplex Luminex); design: key to Inhibition of LPS-stimulated IL-1β production: “X” signifies significant inhibition at a particular concentration
Experimental: as §1, §2, §6

MIP-1α = test: LPS-stimulated MIP-1α production in THP-1 monocytes (multiplex Luminex); design: key to Inhibition of LPS-stimulated MIP-1α production: “X” signifies significant inhibition at a particular concentration
Experimental: as §1, §2, §6

GM-CSF = test: LPS-stimulated GM-CSF production in THP-1 monocytes (multiplex Luminex); design: key to Inhibition of LPS-stimulated GM-CSF production: “X” signifies significant inhibition at a particular concentration
Experimental: as §1, §2, §3

IL-8 = test: LPS-stimulated IL-8 production in THP-1 monocytes (multiplex Luminex); design: key to Inhibition of LPS-stimulated IL-8 production: “X” signifies significant inhibition at a particular concentration
Experimental: as §1, §2, §6

[1] = 30 μg/mL compound + 10 μg/mL LPS, 18 hours, THP-1 monocytes
[2] = LPS-induced, THP-1 monocytes, 18 hours
[3] = 1 μg/mL compound + 10 μg/mL LPS, 18 hours, THP-1 monocytes
[4] = 10 μg/mL compound + 10 μg/mL LPS, 18 hours, THP-1 monocytes
[5] = FIG. 2, LPS-stimulated THP-1 monocytes
[6] = 30 μg/mL compound + 10 μg/mL LPS

N[C@@H]1CCCCN(c2c(F)cc3c(=O)c(C(=O)O)cn(C4CC4)c3c2Cl)C1 [Compound Having Formula IV]
Inhibition of LPS-stimulated MCP-1 production (MCP-1; [1]): X | Comparison of moxifloxacin and compound having Formula IV, effect on MCP-1 after LPS stimulation (MCP-1; FIG. 1, THP-1 monocytes): comparable effects | Concentration at which a significant inhibitory effect was observed for MCP-1 (MCP-1; [2]): 30 µg/mL | Effect on LPS-stimulated production of RANTES (RANTES): Neither moxifloxacin nor compound having Formula IV altered | Inhibition of LPS-stimulated IL-1α production (IL-1α; 0.1 μg/mL compound + 10 μg/mL LPS, 18 hours, THP-1 monocytes): X | Inhibition of LPS-stimulated IL-1α production (IL-1α; [3]): X | Inhibition of LPS-stimulated IL-1α production (IL-1α; [4]): X | Inhibition of LPS-stimulated IL-1α production (IL-1α; [1]): X | Relative potency of compound having Formula IV and moxifloxacin on IL-1α (IL-1α; [5]): better potency than moxifloxacin | Lowest concentration with significant inhibitory effect on IL-1α (IL-1α; LPS-induced, THP-1 monocytes): 100 ng/mL | Concentration at which a significant inhibitory effect was observed for IL-1α (IL-1α; [2]): 0.1 µg/mL | Inhibition of LPS-stimulated G-CSF production (G-CSF; [3]): X | Inhibition of LPS-stimulated G-CSF production (G-CSF; [4]): X | Inhibition of LPS-stimulated G-CSF production (G-CSF; [1]): X | Relative potency of compound having Formula IV and moxifloxacin on G-CSF (G-CSF; [5]): better potency than moxifloxacin | Concentration with significant inhibitory effect on G-CSF (G-CSF; LPS-induced, THP-1 monocytes): 1000 ng/mL | Concentration at which a significant inhibitory effect was observed for G-CSF (G-CSF; [2]): 1 µg/mL | Effect on LPS-stimulated production of fractalkine (Fractalkine): Neither moxifloxacin nor compound having Formula IV altered | Inhibition of LPS-stimulated IL-12p40 production (IL-12p40; [6]): X | Concentration at which a significant inhibitory effect was observed for IL-12p40 (IL-12p40; LPS-induced): 30 µg/mL | Inhibition of LPS-stimulated IL-1ra production (IL-1ra; 1 μg/mL compound + 10 μg/mL LPS, THP-1 monocytes): X | Inhibition of LPS-stimulated IL-1ra production (IL-1ra; 10 μg/mL compound + 10 μg/mL LPS, THP-1 monocytes): X | Inhibition of LPS-stimulated IL-1ra production (IL-1ra; 30 μg/mL compound + 10 μg/mL LPS, THP-1 monocytes): X | Relative potency of compound having Formula IV and moxifloxacin on IL-1ra (IL-1ra; [5]): better potency than moxifloxacin | Concentration with significant inhibitory effect on IL-1ra (IL-1ra; LPS-induced, THP-1 monocytes): 1000 ng/mL | Inhibition of LPS-stimulated IP-10 production (IP-10; [1]): X | Comparison of moxifloxacin and compound having Formula IV, effect on IP-10 after LPS stimulation (IP-10; FIG. 1, THP-1 monocytes): comparable effects | Concentration at which a significant inhibitory effect was observed for IP-10 (IP-10; [2]): 30 µg/mL | Inhibition of LPS-stimulated IL-6 production (IL-6; [3]): X | Inhibition of LPS-stimulated IL-6 production (IL-6; [4]): X | Inhibition of LPS-stimulated IL-6 production (IL-6; [1]): X | Relative potency of compound having Formula IV and moxifloxacin on IL-6 (IL-6; [5]): better potency than moxifloxacin | Concentration with significant inhibitory effect on IL-6 (IL-6; LPS-induced, THP-1 monocytes): 1000 ng/mL | Concentration at which a significant inhibitory effect was observed for IL-6 (IL-6; [2]): 1 µg/mL | Inhibition of LPS-stimulated VEGF production (VEGF; 10 μg/mL compound + 10 μg/mL LPS): X | Inhibition of LPS-stimulated VEGF production (VEGF; [6]): X | Relative potency of compound having Formula IV and moxifloxacin on VEGF (VEGF; [5]): better potency than moxifloxacin | Inhibition of LPS-stimulated IL-1β production (IL-1β; [1]): X | Comparison of moxifloxacin and compound having Formula IV, effect on IL-1β after LPS stimulation (IL-1β; FIG. 1, THP-1 monocytes): comparable effects | Concentration at which a significant inhibitory effect was observed for IL-1β (IL-1β; [2]): 30 µg/mL | Inhibition of LPS-stimulated MIP-1α production (MIP-1α; [1]): X | Comparison of moxifloxacin and compound having Formula IV, effect on MIP-1α after LPS stimulation (MIP-1α; FIG. 1, THP-1 monocytes): comparable effects | Concentration at which a significant inhibitory effect was observed for MIP-1α (MIP-1α; [2]): 30 µg/mL | Inhibition of LPS-stimulated GM-CSF production (GM-CSF; [1]): X | Comparison of moxifloxacin and compound having Formula IV, effect on GM-CSF after LPS stimulation (GM-CSF; FIG. 1, THP-1 monocytes): comparable effects | Concentration at which a significant inhibitory effect was observed for GM-CSF (GM-CSF; [2]): 30 µg/mL | Inhibition of LPS-stimulated IL-8 production (IL-8; [1]): X | Comparison of moxifloxacin and compound having Formula IV, effect on IL-8 after LPS stimulation (IL-8; FIG. 1, THP-1 monocytes): comparable effects | Concentration at which a significant inhibitory effect was observed for IL-8 (IL-8; [2]): 30 µg/mL
